Source: patent US10988459B2 (priority 2015, dated 2021)

Target: human RIP1 kinase domain (2-375) (Homo sapiens (Human), UniProt Q13546)
Experiment: biochemical
Type: biochemical
Conditions: Table 1; apparent Ki (Morrison tight-binding fit); 50 nM RIP1 kinase domain, 50 uM ATP, 2 hours incubation; read-out: RIP1 Ki
Protocol: Example 794: RIP1 Kinase Inhibition Assays (Biochemical Assay)
The compounds of the present invention were tested for their capacity to inhibit RIP1K activity as described below.
The ability of the receptor interacting protein kinase (RIPK1) to catalyze the hydrolysis of adenosine-5′-triphosphate (ATP) is monitored using the Transcreener ADP (adenosine-5′-diphosphate) assay (BellBrook Labs). Purified human RIP1 kinase domain (2-375) (50 nM) derived from a baculovirus-infected insect cell expression system is incubated with test compounds for 2 hours in 50 mM Hepes buffer (pH 7.5) containing 30 mM MgCl2, 1 mM dithiothreitol, 50 uM ATP, 0.002% Brij-35, and 0.5% dimethyl sulfoxide (DMSO). […] The tracer bound to the antibody is displaced by the ADP generated during the RIP1K reaction, which causes a decrease in fluorescence polarization that is measured by laser excitation at 633 nm with a FP microplate reader M1000. Fractional activity was plotted against test article concentration. Using Genedata Screener software (Genedata; Basel, Switzerland), the data were fit to the tight-binding apparent inhibition constant (Ki^app) Morrison equation [Williams, J. W. and Morrison, J. F. (1979) The kinetics of reversible tight-binding inhibition. Methods Enzymol 63: 437-67]. The following equation was used to calculate fractional activity and Ki^app:
[formula] where [E]T and [I]T are the total concentrations of active enzyme and test article, respectively.
“Method” in the first column of each table refers to the synthetic method(s) used to prepare each compound as shown in the Examples above. In certain examples, chiral column retention times (min) are provided for certain stereoisomers.

Sequence of human RIP1 kinase domain (2-375) (Q13546 2-375): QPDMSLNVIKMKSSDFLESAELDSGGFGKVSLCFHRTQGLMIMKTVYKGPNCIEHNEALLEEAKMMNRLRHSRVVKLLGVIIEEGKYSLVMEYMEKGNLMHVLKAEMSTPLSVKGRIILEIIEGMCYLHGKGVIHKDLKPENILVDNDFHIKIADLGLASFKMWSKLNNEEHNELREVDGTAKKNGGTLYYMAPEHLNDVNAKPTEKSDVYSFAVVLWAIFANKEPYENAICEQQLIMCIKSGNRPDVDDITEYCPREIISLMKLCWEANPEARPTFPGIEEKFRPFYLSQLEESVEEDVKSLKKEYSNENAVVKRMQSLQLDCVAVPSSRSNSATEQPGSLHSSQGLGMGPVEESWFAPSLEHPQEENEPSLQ

Row | SMILES | Ki [nM]
1 | Cc1cc2n(n1)CCC(NC(=O)c1ncn3ccc(C(F)(F)F)cc13)C(=O)N2C (centres unmarked) [Example 76, N-(2,4-dimethyl-5-oxo-5,6,7,8-tetrahydro-4H-pyrazolo[1,5-a][1,3]diazepin-6-yl)-7-(trifluoromethyl)imidazo[1,5-a]pyridine-1-carboxamide] | 536
2 | CC1CCc2onc(C(=O)N[C@H]3COc4ccccc4N(C)C3=O)c2C1 (stereo partly drawn) [Example 67, 5-methyl-N-((S)-5-methyl-4-oxo-2,3,4,5-tetrahydrobenzo[b][1,4]oxazepin-3-yl)-4,5,6,7-tetrahydrobenzo[d]isoxazole-3-carboxamide] | 107

Same assay, conditions: Table 5; apparent Ki (Morrison tight-binding fit); 50 nM RIP1 kinase domain, 50 uM ATP, 2 hours incubation; read-out: Ki

Row | Ki [nM] | SMILES
3 | 10 | CN1C(=O)[C@@H](NC(=O)c2cc3c(cn2)CO[C@@]3(C)C(F)(F)F)COc2ccccc21 [Example 744, (1R)-1-methyl-N-[(3S)-5-methyl-4-oxo-2,3-dihydro-1,5-benzoxazepin-3-yl]-1-(trifluoromethyl)-3H-furo[3,4-c]pyridine-6-carboxamide]

Same assay, conditions: human RIP1 kinase domain (2-375), 50 uM ATP, 2 hours incubation, Transcreener ADP assay; read-out: RIP1 Ki

Row | SMILES | Ki [nM]
4 | CN1C(=O)[C@@H](NC(=O)c2nnn3c2CC2(CCCC2)C3)CCn2nccc21 [Example 120, (S)—N-(4-methyl-5-oxo-5,6,7,8-tetrahydro-4H-pyrazolo[1,5-a][1,3]diazepin-6-yl)-4′H,6′H-spiro[cyclopentane-1,5′-pyrrolo[1,2-c][1,2,3]triazole]-3′-carboxamide] | 2100
5 | CN1C(=O)C(NC(=O)c2nnc(Cc3ccccc3)[nH]2)CCn2nc3c(c21)CS(=O)(=O)C3 (centres unmarked) [Example 141, 5-benzyl-N-(1-methyl-9,9-dioxido-2-oxo-1,2,3,4,5,10-hexahydro-8H-thieno[3′,4′:3,4]pyrazolo[1,5-a][1,3]diazepin-3-yl)-4H-1,2,4-triazole-3-carboxamide] | 544
6 | CN1C(=O)[C@@H](NC(=O)c2n[nH]c3ccc(C4CC4)cc23)COc2ccccc21 [Example 92, (S)-5-cyclopropyl-N-(5-methyl-4-oxo-2,3,4,5-tetrahydrobenzo[b][1,4]oxazepin-3-yl)-1H-indazole-3-carboxamide] | 12.9
7 | CCC1(C)Cc2c(C(=O)N[C@H]3COc4ccccc4N(C)C3=O)n[nH]c2CO1 (stereo partly drawn) [Example 194, 5-ethyl-5-methyl-N-((S)-5-methyl-4-oxo-2,3,4,5-tetrahydrobenzo[b][1,4]oxazepin-3-yl)-1,4,5,7-tetrahydropyrano[3,4-c]pyrazole-3-carboxamide] | 167

Results, then the molecule that gave them:

Row | Ki [nM] | SMILES
8 | 8700 | CN1C(=O)[C@@H](NC(=O)c2nnn3c2CC(c2ccccc2)C3)CCn2nccc21 (stereo partly drawn) [Example 121, N—((S)-4-methyl-5-oxo-5,6,7,8-tetrahydro-4H-pyrazolo[1,5-a][1,3]diazepin-6-yl)-5-phenyl-5,6-dihydro-4H-pyrrolo[1,2-c][1,2,3]triazole-3-carboxamide]
9 | 18.6 | Cc1ccc2snc(C(=O)N[C@H]3COc4ccccc4N(C)C3=O)c2c1 [Example 90, (S)-5-methyl-N-(5-methyl-4-oxo-2,3,4,5-tetrahydrobenzo[b][1,4]oxazepin-3-yl)benzo[d]isothiazole-3-carboxamide]
10 | 5000 | CCOC(=O)[C@H]1[C@H]2CC[C@H](NC(=O)c3ncn(Cc4ccccc4)n3)C(=O)N(C)[C@H]21 (single isomer, unassigned) [Example 132]

Same assay, conditions: human RIP1 kinase domain (2-375), Transcreener ADP assay, 50 uM ATP, 2 hours incubation; read-out: RIP1 Ki

Row | SMILES | Ki [nM]
11 | CN1C(=O)[C@@H](NC(=O)c2ncn(Cc3ccccc3)n2)CCn2nc(C3CC3(F)F)cc21 (stereo partly drawn) [Example 283, 1-benzyl-N-((6S)-2-(2,2-difluorocyclopropyl)-4-methyl-5-oxo-5,6,7,8-tetrahydro-4H-pyrazolo[1,5-a][1,3]diazepin-6-yl)-1H-1,2,4-triazole-3-carboxamide] | 72.2
12 | CN1C(=O)[C@@H](NC(=O)c2nnc(Cc3ccc(F)cc3)[nH]2)CCn2nc(C3CC3)cc21 [Example 332, (S)—N-(2-cyclopropyl-4-methyl-5-oxo-5,6,7,8-tetrahydro-4H-pyrazolo[1,5-a][1,3]diazepin-6-yl)-5-(4-fluorobenzyl)-4H-1,2,4-triazole-3-carboxamide] | 88

Results, then the molecule that gave them:

Row | Ki [nM] | SMILES
13 | 26.8 | CN1C(=O)[C@@H](NC(=O)c2ncn(Cc3c(F)cccc3F)n2)CCn2nc(C3CC3)cc21 [Example 302, (S)—N-(2-cyclopropyl-4-methyl-5-oxo-5,6,7,8-tetrahydro-4H-pyrazolo[1,5-a][1,3]diazepin-6-yl)-1-(2,6-difluorobenzyl)-1H-1,2,4-triazole-3-carboxamide]
14 | 103 | Cc1nn2c(c1C)N(C)C(=O)[C@@H](NC(=O)c1nnc(Cc3ccc(F)cc3)[nH]1)CC2 [Example 330, (S)-5-(4-fluorobenzyl)-N-(2,3,4-trimethyl-5-oxo-5,6,7,8-tetrahydro-4H-pyrazolo[1,5-a][1, 3]diazepin-6-yl)-4H-1,2,4-triazole-3-carboxamide]

Same assay, conditions: read-out: RIP1 Ki

Row | SMILES | Ki [nM]
15 | CN1C(=O)[C@@H](NC(=O)c2n[nH]c3c2CC(C)(C)CC3)COc2ccccc21 [Example 18, 5,5-dimethyl-N-[(3S)-5-methyl-4-oxo-2,3-dihydro-1,5-benzoxazepin-3-yl]-1,4,6,7-tetrahydroindazole-3-carboxamide] | 415

Same assay, conditions: tight-binding apparent inhibition constant; human RIP1 kinase domain (2-375) 50 nM, 50 uM ATP, 2 hours; read-out: Ki

Row | SMILES | Ki [nM]
16 | CN1C(=O)[C@@H](NC(=O)c2nc3n(n2)[C@H](c2ccccc2)CC3)COc2ccccc21 (single isomer, unassigned) [Example 613] | 71
17 | CN1C(=O)[C@@H](NC(=O)c2ncc3n2CC(CC(F)(F)F)CC3)COc2ccccc21 (stereo partly drawn) [Example 469, N-[(3S)-5-methyl-4-oxo-2,3-dihydro-1,5-benzoxazepin-3-yl]-6-(2,2,2-trifluoroethyl)-5,6,7,8-tetrahydroimidazo[1,5-a]pyridine-3-carboxamide] | 1000
18 | Cc1cc2n(n1)CC[C@H](NC(=O)c1ncn(C[C@H]3C[C@H](C(F)(F)F)C3)n1)C(=O)N2C [Example 483] | 110
19 | CN1C(=O)[C@@H](NC(=O)c2nc3n(n2)C(c2cc(F)ccc2F)CCC3)CCn2nccc21 (stereo partly drawn) [Example 388, 5-(2,5-difluorophenyl)-N—((S)-4-methyl-5-oxo-5,6,7,8-tetrahydro-4H-pyrazolo[1,5-a][1,3]diazepin-6-yl)-5,6,7,8-tetrahydro-[1,2,4]triazolo[1,5-a]pyridine-2-carboxamide] | 124
20 | Cc1cccnc1Cn1cnc(C(=O)N[C@H]2CCn3nccc3N(C)C2=O)n1 [Example 647, 1-[(3-methyl-2-pyridyl)methyl]-N-(6S)-4-methyl-5-oxo-7,8-dihydro-6H-pyrazolo[1,5-a][1,3]diazepin-6-yl-1,2,4-triazole-3-carboxamide] | 160
21 | Cc1ncccc1Cn1cnc(C(=O)N[C@H]2CCn3nccc3N(C)C2=O)n1 [Example 663, 1-[(2-methyl-3-pyridyl)methyl]-N-(6S)-4-methyl-5-oxo-7,8-dihydro-6H-pyrazolo[1,5-a][1,3]diazepin-6-yl-1,2,4-triazole-3-carboxamide] | 420
22 | Cn1cc(C2CCCc3nc(C(=O)N[C@H]4CCc5cc(F)cc(F)c5NC4=O)nn32)cn1 (stereo partly drawn) [Example 433, N—((S)-7,9-difluoro-2-oxo-2,3,4,5-tetrahydro-1H-benzo[b]azepin-3-yl)-5-(1-methyl-1H-pyrazol-4-yl)-5,6,7,8-tetrahydro-[1,2,4]triazolo[1,5-a]pyridine-2-carboxamide] | 143

Further lines, results first:

Row | Ki [nM] | SMILES
23 | 20 | CN1C(=O)[C@@H](NC(=O)c2ncn(Cc3ccccc3F)n2)CCn2nc(C(F)(F)F)cc21 [Example 526]
24 | 19 | CN1C(=O)[C@@H](NC(=O)c2ncn(Cc3cccc(Cl)c3)n2)CCn2nc(C3CC3)cc21 [Example 538]
25 | 161 | CC(O)c1cc2n(n1)CC[C@H](NC(=O)c1ncn(Cc3ccccc3)n1)C(=O)N2C (single isomer, unassigned) [Example 367]
26 | 24 | CN1C(=O)[C@@H](NC(=O)c2ncn(Cc3ccccc3C(F)(F)F)n2)CCn2nccc21 [Example 583, N-(6S)-4-methyl-5-oxo-7,8-dihydro-6H-pyrazolo[1,5-a][1,3]diazepin-6-yl]-1-[[2-(trifluoromethyl)phenyl]methyl-1,2,4-triazole-3-carboxamide]
27 | 700 | Cc1cc2n(n1)CC[C@H](NC(=O)c1ncn(Cc3ccccc3C#N)n1)C(=O)N2C [Example 590, 1-[(2-cyanophenyl)methyl]-N-(6S)-2,4-dimethyl-5-oxo-7,8-dihydro-6H-pyrazolo[1,5-a][1, 3]diazepin-6-yl-1,2,4-triazole-3-carboxamide]
28 | 420 | CN1C(=O)[C@@H](NC(=O)c2ncn(CC3CCC(F)(F)C3)n2)CCn2nc(C3CC3)cc21 (some centres unmarked) [Example 594]
29 | 17 | Cc1cc2n(n1)CC[C@H](NC(=O)c1ncn(Cc3ccccc3C)n1)C(=O)N2C [Example 591, 1-(o-tolylmethyl)-N-(6S)-2,4-dimethyl-5-oxo-7,8-dihydro-6H-pyrazolo[1,5-a][1,3]diazepin-6-yl-1,2,4-triazole-3-carboxamide]
